Legend:
[1] = water solubility; assay type: physicochemical
Excerpt: (§1) Advantageously according to the invention, the composition for use in a method for the prophylaxis and/or treatment of back pain and the composition comprising at least two components are in the form of an oral dosage form. An oral dosage form is easy to handle and is accepted by a user without problems. In addition, the user can easily take the composition themself. It is preferably a solid form of administration, in particular in the form of capsules, tablets, dragées, granules and powders. Addition of the composition to functional foods, such as a bar for healthy nutrition, is also possible. Alternatively or in addition, a liquid dosage form, in particular in the form of drops, stable solutions and/or juices, is also possible.

[2] = stability in solution; assay type: physicochemical; details: over pH range
Excerpt: as §1

water solubility [1]: good water solubility
stability in solution [2]: stable in solution over a wide pH range
SMILES: CC(=O)N[C@H]1C(O)O[C@H](CO)[C@@H](O)[C@@H]1O (stereo partly drawn) [N-acetyl-glucosamine, N-acetyl-D-glucosamine]
